Test results taken from PMC12030301, “Caffeic Acid Phenethyl Ester (CAPE) Inhibits Arginase Activity and Growth of Leishmania amazonensis Promastigotes and Intracellular Amastigotes” (Pathogens, 2025).

Target: T1, arginase
T1 construct: purified recombinant arginase
Assay: enzyme inhibition kinetics with purified recombinant arginase; Dixon and Cornish-Bowden plots (IC50 […])
Format: biochemical, Leishmania amazonensis

## O=C(/C=C/c1ccc(O)c(O)c1)OCCc1ccccc1 [CAPE, Caffeic acid phenethyl ester]
  Ki: 1510 ± 40 nM
